Experimental data published in publication PMC3070799 (Neuropharmacology, 2011).
“And” between values parts separate entries of the source, which are not always exact repeats. Equal entries are not always repeated.

Molecular target: T1, human 5-HT3A receptors (Homo sapiens, UniProt P46098)
T1 construct: expressed in transfected cells; host or cells: Xenopus laevis oocytes (cRNA from pGEMHE)
T1 sequence (P46098 24-478): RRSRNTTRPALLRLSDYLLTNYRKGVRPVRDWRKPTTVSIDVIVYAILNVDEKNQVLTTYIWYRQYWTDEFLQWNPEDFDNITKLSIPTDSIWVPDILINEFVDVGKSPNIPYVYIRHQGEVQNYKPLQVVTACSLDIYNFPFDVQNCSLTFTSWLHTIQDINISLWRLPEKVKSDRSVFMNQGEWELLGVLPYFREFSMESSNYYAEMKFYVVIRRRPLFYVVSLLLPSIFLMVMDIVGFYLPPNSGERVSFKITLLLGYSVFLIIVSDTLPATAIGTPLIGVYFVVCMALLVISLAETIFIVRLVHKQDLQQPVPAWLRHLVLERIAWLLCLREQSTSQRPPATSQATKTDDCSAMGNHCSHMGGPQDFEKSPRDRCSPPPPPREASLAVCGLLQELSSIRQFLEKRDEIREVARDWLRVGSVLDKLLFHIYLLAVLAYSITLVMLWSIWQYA
Assay: Two-electrode voltage clamp of 5-HT-induced currents in Xenopus oocytes, incl. co-application
Format: cell-based
Details: for use-dependence of inhibition: 3 μM 5-HT applied at 1 min intervals in continued presence of antagonist; for ratio of current amplitudes at +40 mV relative to −40 mV (voltage-dependence): compared with absence of antagonist, Fig. 2E; for Hill slope: concentration-inhibition curve, 1.7 μM 5-HT; for potency at 5-HT3A relative to GABA and glycine receptors: less potent than at GABA and glycine receptors, ref Huang et al., 2004, Hawthorne et al., 2006
Protocol: Stage V and VI oocytes were injected with 50 nl of ∼300 ng μl^−1 cRNA, and currents were recorded 1–4 days post-injection. A ratio of 1:3 (A:B) was used for the expression of heteromeric 5-HT3 receptors.
Xenopus laevis oocyte positive females were purchased from NASCO (Fort Atkinson, Wisconsin, USA) and maintained according to standard methods.
Currents were filtered at a frequency of 1 kHz. Micro-electrodes were fabricated from borosilicate glass (GC120TF-10, Harvard Apparatus, Edenbridge, Kent, UK) using a two stage horizontal pull (P-87, Sutter Instrument Company, California, USA) and filled with 3 M KCl. […] Oocytes were perfused with saline at a rate of 15 ml min^−1. Drug application was via a simple gravity fed system calibrated to run at the same rate. Extracellular saline contained (mM), 96 NaCl, 2 KCl, 1 MgCl2 and 5 mM HEPES; adjusted to pH 7.4 with NaOH.
Analysis and curve fitting was performed using Prism V3.02 (GraphPad Software, San Diego, California, USA, www.graphpad.com). Concentration-response data for each oocyte was normalised to the maximum current for that oocyte. For inhibition curves, antagonists were routinely co-applied in the presence of agonist. For PXN, oocytes were also pre-treated with the compound for 20 s. A 2 min wash was used between drug applications. The mean and S.E.M. for a series of oocytes was plotted against agonist or antagonist concentration and iteratively fitted (GraphPad Prism v3.02) to the following Hill equation:(1) IA=Imin+Imax−Imin/1+10^nH(logA50−logA) where A is the concentration of ligand present; IA is the current in the presence of ligand concentration A; Imin is the current when A = 0; Imax is the current when A = ∞ , A50 is the concentration of A which evokes a current equal to (Imax + Imin)/2; and nH is the Hill coefficient. Results are presented as mean ± S.E.M.. Statistical analysis was performed using ANOVA in conjunction with a Dunnett’s post-hoc test.
97) • Scenario 1: Where compounds share a binding site it was assumed that the extent of binding would be determined by a competitive interaction between the compounds such that the proportion of binding sites occupied (Pocc) in the presence of two competing compounds is given by the following expression: (2) Pocc=AKA+BKB/1+AKA+BKB where A and B are the concentrations of two ligands and KA and KB are their affinity constants respectively.
In each individual experiment, for each combination of inhibitors, data values were obtained for IA, IB and IAB. From IA and IB predicted values of IAB1 and IAB2 were also derived. A two-way ANOVA was performed on values of IAB, IAB1 and IAB2 in which the distinction between IAB, IAB1 and IAB2 was treated as a fixed factor and the variation in levels of inhibition between experiments was treated as a random factor. Where the ANOVA indicated a significant difference (P < 0.05) between IAB, IAB1 and IAB2 a post-hoc analysis was carried out using the Waller–Duncan method to identify homogenous subsets with a significance level of 0.05 and a Type I /Type II error ratio if 100.
Our models were based on the following assumptions: 1. that the channel blocking compounds only effect the response that is seen when the channel is open. […] In the case of condition 5 it is possible that the binding of one compound may prevent access of another to its own site. However, in practice this will not influence the analysis since the functional consequence of the binding of both compounds compared to one will be the same, namely complete channel blockade.

[1] = GB 300 μM, use-dependency experiment, Fig. 3A

Compound	IC50 [µM]	use-dependence of inhibition (GB 300 μM)	current on washout (6 mM)	ratio of current amplitudes at +40 mV relative to −40 mV (voltage-dependence)	Hill slope	potency at 5-HT3A relative to GABA and glycine receptors [fold]	Level of inhibition (1 − (I/Imax)) GB (GB 11 μM applied alone)	percentage inhibition measured at peak [1] [%]	percentage inhibition measured during the first application [1] [%]	first 5-HT response as % of the second 5-HT response (recovery) (after 0.3 mM GB) [%]	Level of inhibition (1 − (I/Imax)) PXN (PXN 5 μM applied alone)	effect on 5-HT concentration-response curves (PXN between 1–50 × IC50)	inhibition at 5 µM (read-out: Level of inhibition (1 − (I/Imax)) PXN, PXN 5 μM applied alone) [%]
CC(C)(C)[C@]1(O)CC2OC(=O)CC23C(=O)OC2OC(=O)[C@H](O)C231 (stereo partly drawn) [BB, bilobalide]	470	remained stable	transient rebound current was observed	unaltered	1.48 ± 0.16	~100	–	–	–	–	–	–	–
ginkgolide B [GB]	–	use-dependent	–	unaltered	1.10 ± 0.13	~100	0.25 ± 0.01 and 0.26 ± 0.05	31 ± 3.1	38 ± 0.8	91 ± 2	–	–	–
C=C(C)[C@@H]1[C@H]2OC(=O)[C@@H]1[C@]1(O)C[C@H]3O[C@]34C(=O)O[C@H]2[C@]14C [PXN, picrotoxinin]	10.7	remained stable	–	unaltered	0.68 ± 0.12	–	–	–	–	–	0.35 ± 0.03	rightwards shifts and a reduction in the maximal current	48 ± 4
